We go through 5 compounds from PMC12348105, “Pinene-Based Chiral Bipyridine Ligands Drive Potent Antibacterial Activity in Rhenium(I) Complexes” (Molecules, 2025).

By MIC is commonly meant the lowest concentration found to suppress growth. A low value points to greater potency. As usually defined, the IC50 is the concentration that inhibits the measured activity by half.

Values after ≈ are worked out from the molar mass of the structure shown. A value given as a limit tells only on which side of the number the result lay.

Test [1] deals with methicillin-resistant S. aureus (MRSA). The experiment in a line: MIC determination against methicillin-resistant S. aureus (broth dilution, OD600). It is filed as cell-based, Staphylococcus aureus. As to conditions: for MIC: 24 h, 37 °C. Here is the method: (§1) The antimicrobial activity of the rhenium tricarbonyl mononuclear complexes and their corresponding pinene-bipyridine ligands was determined against two S. aureus strain: methicillin-resistant S. aureus (MRSA 43300) and methicillin-sensitive S. aureus (MSSA 25923). These microorganisms are responsible for most nosocomial infections. […] Their mechanism of action is not yet fully understood, but we hypothesized that their positive charge allows them to interact more easily with biomolecules than neutral complexes, and/or that they more strongly interact with the negatively charged cellular membrane.
(§2) The antimicrobial activity of the complexes was evaluated against two strains: Staphylococcus aureus SA113 (methicillin-susceptible, MSSA) and S. aureus MecA R2954 (methicillin-resistant, MRSA). Briefly, each complex was initially dissolved in sterile DMSO at a concentration of 10 mM to create a stock solution. The solutions were diluted with Mueller–Hinton Broth (MHB) culture medium and added (serial dilution) to the wells of a 96-well plate at final concentrations ranging from 100 µM to 0.2 µM. Simultaneously, bacterial cultures grown the previous day in non-cation-adjusted MHB (1×) were used to prepare suspensions at 1 × 10^6 CFU/mL. An equal volume (50 µL) of these bacterial suspensions was added to each well containing the diluted complexes, resulting in final bacterial and compound concentrations of 5 × 10^5 CFU/mL and 100 µM to 0.2 µM, respectively. The plates were incubated at 37 °C for 24 h. Minimum inhibitory concentrations (MICs) were determined by measuring optical density at 600 nm (OD600). All experiments were performed in triplicate.
A general note: Broth dilution looks for growth in wells or tubes with falling amounts of substance.

For test [2], the system named is L929 mouse fibroblast cells. The experiment in a line: Cell toxicity, MTT assay. It is filed as cell-based. The following applies: 24 h treatment. Here is the method:
The cytotoxicity of the complexes was evaluated using L929 mouse fibroblast cells cultured in DMEM supplemented with 10% (v/v) fetal bovine serum (FBS), 1% (v/v) penicillin/streptomycin, and L-glutamine. Cytotoxicity was assessed using the standard MTT assay. Briefly, cells were seeded into 96-well plates at a density of 3.75 × 10^4 cells/mL and incubated for 24 h. The complexes, initially dissolved in DMSO, were diluted with culture medium and added to the wells at final concentrations ranging from 100 µM to 0.2 µM. After 24 h of treatment, MTT solution (5 mg/mL in PBS) diluted in fresh medium was added to each well at 25% of the total volume and incubated for an additional 4 h. Formazan crystals formed by metabolically active cells were then solubilized in a 1:1 (v/v) DMSO:ethanol solution. Control wells included untreated cells (100% viability). Relative cell viability was calculated by comparing absorbance values to those of the untreated control.
A general note: Tetrazolium assays rely on reduction of a dye to a coloured formazan, in cell work by metabolically active cells.

Test [3] concerns methicillin-sensitive S. aureus (MSSA). In words: MIC determination against methicillin-sensitive S. aureus (broth dilution, OD600). It is filed as cell-based, Staphylococcus aureus. The following applies: 24 h, 37 °C. Here is the method:
as §1, §2

Regarding `CC1(C)[C@H]2Cc3cc(-c4ccccn4)ncc3[C@@H]1C2` [4,5-pinbpy, (−)-4,5-pinene bipyridine], the MIC is 3.13 µM (≈ 0.784 µg/mL) in test [1] (Staphylococcus aureus, MRSA) and 3.13 µM (≈ 0.784 µg/mL) in test [3] (Staphylococcus aureus). In test [2], this compound registered an IC50 of 2.5 to 5 µM.
For the compound `N#CC(C#N)=NNc1cccc(Cl)c1` [CCCP], in test [1] (S. aureus, concentration stated as 1× MIC), the “MIC of positive control” value was 12.5 µM.
On to [Re(CO)3(bpy)Br], for which the minimum inhibitory concentration (MIC) in test [1] (MRSA) and in test [3] was over 50 µM in each case. Moreover, the “MIC higher than that of C2Br” value in test [1] (MRSA, same core structure) is about 10 fold.
Consider [Re(CO)3(bpy)(Py)](OTf), for which the MIC in test [1] (MRSA) and in test [3] was 100 µM in each case.
As for `CC1(C)[C@H]2Cc3nc(-c4ccccn4)ccc3[C@@H]1C2` [5,6-pinbpy, (−)-5,6-pinene bipyridine], the minimal inhibitory concentration (MIC) in test [1] (Staphylococcus aureus, MRSA) stood at 3.13 µM (≈ 0.784 µg/mL); in test [3] (Staphylococcus aureus), 3.13 µM (≈ 0.784 µg/mL). The compound also registered a 50% inhibitory concentration (IC50) in test [2] of 2.5 to 5 µM.
